Measured values reported in PubChem BioAssay (NCI).
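Values below derive from 48-hour exposures of cells grown in 96-well plates, with endpoints linearly interpolated between the two concentrations bracketing the appropriate inhibition level. TGI denotes the concentration required for complete inhibition of growth.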

Columns and labels:
Test in all cases: NCI-60 cell line screen, 48 h
786-0 renal = tested on: 786-0 renal
A498 renal = tested on: A498 renal
A549 NSCLC = tested on: A549 NSCLC
ACHN renal = tested on: ACHN renal
CAKI-1 renal = tested on: CAKI-1 renal
COLO 205 colon = tested on: COLO 205 colon
DLD-1 colon = tested on: DLD-1 colon
DMS 114 small cell lung = tested on: DMS 114 small cell lung
DMS 273 small cell lung = tested on: DMS 273 small cell lung
EKVX NSCLC = tested on: EKVX NSCLC
HCT-116 colon = tested on: HCT-116 colon
HCT-15 colon = tested on: HCT-15 colon
HOP-18 NSCLC = tested on: HOP-18 NSCLC
HOP-62 NSCLC = tested on: HOP-62 NSCLC
HOP-92 NSCLC = tested on: HOP-92 NSCLC
IGROV1 ovarian = tested on: IGROV1 ovarian
KM12 colon = tested on: KM12 colon
KM20L2 colon = tested on: KM20L2 colon
LOX IMVI melanoma = tested on: LOX IMVI melanoma
MALME-3M melanoma = tested on: MALME-3M melanoma
NCI-H226 lung = tested on: NCI-H226 lung
NCI-H23 lung = tested on: NCI-H23 lung
NCI-H460 lung = tested on: NCI-H460 lung
OVCAR-3 ovarian = tested on: OVCAR-3 ovarian
OVCAR-4 ovarian = tested on: OVCAR-4 ovarian
OVCAR-5 ovarian = tested on: OVCAR-5 ovarian
OVCAR-8 ovarian = tested on: OVCAR-8 ovarian
RXF 393 renal = tested on: RXF 393 renal
SF-268 CNS = tested on: SF-268 CNS
SF-295 CNS = tested on: SF-295 CNS
SF-539 CNS = tested on: SF-539 CNS
SK-MEL-2 melanoma = tested on: SK-MEL-2 melanoma
SK-MEL-28 melanoma = tested on: SK-MEL-28 melanoma
SK-MEL-5 melanoma = tested on: SK-MEL-5 melanoma
SN12C renal = tested on: SN12C renal
SNB-19 CNS = tested on: SNB-19 CNS
SNB-78 CNS = tested on: SNB-78 CNS
SW-620 colon = tested on: SW-620 colon
TK-10 renal = tested on: TK-10 renal
U251 CNS = tested on: U251 CNS
UACC-257 melanoma = tested on: UACC-257 melanoma
UACC-62 melanoma = tested on: UACC-62 melanoma
XF 498 CNS = tested on: XF 498 CNS
CCRF-CEM leukemia = tested on: CCRF-CEM leukemia
HCC-2998 colon = tested on: HCC-2998 colon
HL-60(TB) leukemia = tested on: HL-60(TB) leukemia
HT29 colon = tested on: HT29 colon
K-562 leukemia = tested on: K-562 leukemia
LXFL 529 NSCLC = tested on: LXFL 529 NSCLC
M14 melanoma = tested on: M14 melanoma
M19-MEL melanoma = tested on: M19-MEL melanoma
MOLT-4 leukemia = tested on: MOLT-4 leukemia
NCI-H522 lung = tested on: NCI-H522 lung
RPMI-8226 leukemia = tested on: RPMI-8226 leukemia
SK-OV-3 ovarian = tested on: SK-OV-3 ovarian
SNB-75 CNS = tested on: SNB-75 CNS
SR leukemia = tested on: SR leukemia
UO-31 renal = tested on: UO-31 renal

Measured: TGI

CCCCCC(=O)OCCOCCOCCOCCOCCOCc1ccccc1
not listed: CCRF-CEM leukemia | HCC-2998 colon | HL-60(TB) leukemia | HT29 colon | K-562 leukemia | LXFL 529 NSCLC | M14 melanoma | M19-MEL melanoma | MOLT-4 leukemia | NCI-H522 lung | RPMI-8226 leukemia | SK-OV-3 ovarian | SNB-75 CNS | SR leukemia | UO-31 renal
> 100 µM: all other assays above

CN(C)c1nc(N(C)C)sc(=O)n1
not listed: COLO 205 colon | HCT-116 colon | LOX IMVI melanoma | MALME-3M melanoma | OVCAR-3 ovarian | SNB-78 CNS
> 100 µM: all other assays above

CC(NS(=O)(=O)c1ccc(Cl)cc1)C(=O)O (stereo unspecified)
not listed: DMS 114 small cell lung | HCT-116 colon | HOP-62 NSCLC | NCI-H226 lung | SNB-78 CNS | HCC-2998 colon | SR leukemia
> 100 µM: all other assays above
